Results taken from PMC10812767, “Therapeutic Drug Monitoring of Dalbavancin in Real Life: A Two-Year Experience” (Antibiotics, 2023).

Assays:
[1] = Log-linear regression models describing the time distribution of dalbavancin concentrations; conditions: for Days >4 mg/L / Days >8 mg/L: log-linear regression model, pooled patients
Method: Coupled with the Cmin values, these samples facilitated the development of log-linear regression models describing the time distribution of dalbavancin concentrations for each injection. By targeting the Cmin values for dalbavancin that were not lower than 4 or 8 mg/L, we were able to estimate the number of days needed between each injection to guarantee these targets.
We retrospectively analyzed data from adult patients who received at least 3 doses of dalbavancin for the treatment of osteoarticular and/or periprosthetic joint infections for whom TDM was performed as part of clinical practice. On the day of the scheduled injection, the Cmin for dalbavancin within a 1 h time window before the injection was considered for both Cmin- and Cmax-based TDM. Peak drug concentrations (30 to 60 min after the end of the infusion) were collected only in patients subjected to Cmax-based TDM.
Dalbavacin concentrations were considered both as a continuous variable (expressed as the mean ± standard deviation) and categorical variables, and data (expressed as a percentage) were clustered according to their frequency distribution within the therapeutic ranges proposed in the available literature (>4 or >8 mg/L). Inter-individual variability in the dalbavancin concentrations was calculated as the percentage of the coefficient of variation (CV%). Log-linear regressions were performed using the built-in statistical package in Microsoft Excel (Microsoft Office Software, Microsoft Company, Redmond, WA, USA). The goodness of the log-linear regression models developed by plotting logarithmic concentrations (Y) of dalbavancin with time (X) was quantified using the coefficient of correlation (r). Unpaired t-tests were used to compare the Cmin for dalbavancin, the number of drug injections, and the times of injections between Cmin- and Cmax-based TDM. Statistical significance was set at <0.05 (significant difference) and <0.01 (highly significant difference).

[2] = Therapeutic drug monitoring of plasma dalbavancin concentrations (Cmin, Cmax) by LC-MS/MS; type: in vivo, human (patients)
Text: This study involved a retrospective analysis of TDM that was routinely carried out by the ASST Fatebenefratelli Sacco University Hospital (Milan, Italy) from December 2021 to November 2023; the analysis included samples that were collected within our hospital and those received from other hospitals (our laboratory is a reference laboratory for the TDM of dalbavancin in Lombardy Region, Italy). This service also included the on-demand estimation of the next dalbavancin injection. This estimation required the collection of both the Cmin and the Cmax for dalbavancin. […] Plasma blood samples with dalbavancin were assessed by using ethylene diamine tetra-acetic acid (EDTA)-containing Vacutainers®. All samples were centrifuged at 3000× g, and the plasma was separated and stored at −20 °C. Dalbavancin quantification was performed through a validated LC-MS/MS method that was developed and validated according to the EMA guidelines. The analytical process consisted of a fast protein precipitation protocol of 50 µL of plasma with 400 µL of precipitation solution (methanol/acetonitrile 3/1), centrifugation at 10,000× g, 1:3 dilutions with water, and analysis. […] Waters, Milan, Italy). For quantification, analysis was performed in the ESI-positive mode by monitoring the transition (m/z = 909.45 > 340.2) for dalbavancin.

[3] = cited from earlier work

With `CN[C@H]1C(=O)N[C@@H]2Cc3ccc(cc3)Oc3cc4cc(c3O[C@@H]3O[C@H](C(=O)O)[C@@H](O)[C@H](O)[C@H]3NC(=O)CCCCCCCCC(C)C)Oc3ccc(cc3Cl)[C@@H](O)[C@@H]3NC(=O)[C@H](NC(=O)[C@@H]4NC(=O)[C@@H](NC2=O)c2cc(cc(O)c2Cl)Oc2cc1ccc2O)c1ccc(O)c(c1)-c1c(O[C@H]2O[C@H](CO)[C@@H](O)[C@H](O)[C@@H]2O)cc(O)cc1[C@@H](C(=O)NCCCN(C)C)NC3=O` [dalbavancin] the “Days >4 mg/L” value ([1]; 2nd injection) was 52 days, the “Days >8 mg/L” value ([1]; 2nd injection) was 42 days and the “Days >4 mg/L” value ([1]; 3rd injection) was 52 days. For the same molecule, the “Days >8 mg/L” value ([1]; 3rd injection) was 43 days, the “Days >4 mg/L” value ([1]; 4th injection) was 59 days and the “Days >8 mg/L” value ([1]; 4th injection) was 48 days. The “Days >4 mg/L” value ([1]; 5th injection) was 56 days, the “Days >8 mg/L” value ([1]; 5th injection) was 45 days and the “Days >4 mg/L” value ([1]; 6th injection) was 53 days. The “Days >8 mg/L” value ([1]; 6th injection) was 44 days, the “Days >4 mg/L” value ([1]; >6 injections) was 52 days and the “Days >8 mg/L” value ([1]; >6 injections) was 42 days. For the same molecule, the “Days >4 mg/L” value ([1]; Overall) was 54 days, the “Days >8 mg/L” value ([1]; Overall) was 44 days and the “Days between injections needed to maintain Cmin >8 mg/L” value ([1]; estimated from pooled log-linear regression models, range over injections) was 42 to 48 days. The “Cmax of dalbavancin, range” value ([2]; 107 TDM assessments, plasma, 30 to 60 min after end of infusion, LC-MS/MS, range) was 74.9 to 995.6 µg/mL, the “Dalbavancin Cmin CV%” value ([2]; Cmax-based TDM, 2nd injection) was 44% and the “Dalbavancin Cmin CV%” value ([2]; Cmax-based TDM, 3rd injection) was 46%. The “Dalbavancin Cmin CV%” value ([2]; Cmax-based TDM, 4th injection) was 40%, the “Dalbavancin Cmin CV%” value ([2]; Cmax-based TDM, 5th injection) was 21% and the “Dalbavancin Cmin CV%” value ([2]; Cmax-based TDM, 6th injection) was 32%. The “Dalbavancin Cmin CV%” value ([2]; Cmax-based TDM, ≥6 injections) was 32%, the “Dalbavancin Cmin CV%” value ([2]; Cmin-based TDM, 2nd injection) was 45% and the “Dalbavancin Cmin CV%” value ([2]; Cmin-based TDM, 3rd injection) was 57%. For the same molecule, the “Dalbavancin Cmin CV%” value ([2]; Cmin-based TDM, 4th injection) was 43%, the “Dalbavancin Cmin CV%” value ([2]; Cmin-based TDM, 5th injection) was 56% and the “Dalbavancin Cmin CV%” value ([2]; Cmin-based TDM, 6th injection) was 41%. For the same molecule, the “Dalbavancin Cmin CV%” value ([2]; Cmin-based TDM, ≥6 injections) was 37%, the “Cmin for dalbavancin, range” value ([2]; human, in vivo, iv) was 4.1 to 70.5 µg/mL and the “Cmin for dalbavancin before the second injection” value ([2]; human, in vivo, iv, SD) was 39.6 ± 35.4 µg/mL. For the same molecule, the “Cmin for dalbavancin, mean” value ([2]; human, in vivo, iv, SD) was 20.7 ± 14.0 µg/mL, the Cmax ([2]; human, in vivo, SD) was 310 ± 158 µg/mL and the terminal half-life ([3]; ref [1],[2],[3],[4]) was over 14 days. For the same molecule, the “total volume of distribution” value ([3]; ref [2],[3]) was about 16 L.
